Patent US7163799B2, “Neuromedin U receptor NMUR2 and nucleotides encoding it” (Merck & Co., Inc., priority 2000, dated 2007)
Blank lines part the entries; values can stand above or below the molecule they belong to. Where no end group is shown, it is not given here.

Experiments:
Format in all cases: in vivo, rat
[1] = system: rats; assay: Conditioned taste aversion (CTA) assay in rats; settings: for saccharin intake relative to total intake (taste aversion): 24 hours post-dosing
Protocol: In the CTA study, rats were conditioned to two hour daily access to water, with access to water from two bottles for two hours each day for three days. On the fourth day, rats were given 0.15% saccharin for the two hour period instead of water and saccharin consumption measured. Rats were injected NMU-23 (0, 3, or 10 μg, ICV). LiCl was used as a positive control (0.15 M; 2 ml/kg, i.p.). On the fifth day, rats were given saccharin alone for the first hour, then water was added for the remaining 23 hours. Fluid consumption was measured at 1, 2, and 24 hours post injection. Aversion was assessed as a function of drinking preferences.

[2] = system: rats; assay: Sodium (salt) appetite aversion assay in rats; settings: sodium-depleted rats
Protocol: In the salt appetite assay, rats were given 0.5 M NaCl salt water to drink for three days along with food and regular water. After three days, two injections of furosemide (5 mg /0.2 ml, s.c.) were given at one hour apart to sodium-deplete the rats. Rats were then returned to salt-free water and given a sodium-deficient diet. Rats actively seek to defend their internal sodium levels. Consequently, when sodium is depleted, they will avidly drink salt solutions unless ill or nauseous. Twenty-four hours following furosemide administration, rats were given NMU (0, 3, or 10 μg, ICV), or LiCl (0.15 M, 2 ml/kg, i.p.) and given water and 0.5 M NaCl to drink. Fluid consumption was measured 1, 2, and 24 hours post dosing.

[3] = system: rats; assay: Food intake and feeding duration in rats after ICV administration; settings: for overnight food intake, change expressed as percentage of control group: n=12 per group
Protocol: Male rats (Charles River Sprague Dawley) weighing 250–350 g were maintained in a temperature and humidity controlled facility with a 12 hour light/dark cycle (4:00 AM lights on). Rats were individually housed in custom designed shoebox cages on wire floors and fed ad libitum with fresh diet provided daily. […] Attached to the food drawers was an infrared feeding monitor that projects a beam across the drawer above the food (MiniMitter, Inc., Sun River, Oreg.). When the animal broke the infrared beam it caused a switch closure. An oscillator then sent off pulses (one pulse/second) and the total number of pulses indicated the length of time that the beam was broken which corresponds to the length of time spent feeding (recorded as feeding duration).
Cannulation and ICV administration were performed essentially as described in Murphy et al 1998 Neuropeptides 32:491–497, which is hereby incorporated by reference. After cannulation, rats were allowed to recover a minimum of seven days before injection with test compounds. All test substances were dissolved in artificial cerebral spinal fluid (aCSF). Rats were injected ICV with 1, 3, or 10 μg of rat NMU-23 (Phoenix Pharmaceuticals). Additional rats were injected ICV with either 0.3 or 0.03 μg of MT-II (Peninsula Laboratories) as a positive control for food intake suppression (melanocortin receptor agonist). […] Another group of ICV-cannulated rats were used in conditioned taste aversion (CTA) and sodium appetite (SA) aversion assays.

Molecule: [Cl-].[Li+] [LiCl]
saccharin intake (taste aversion) ([1]; 0.15 M, 2 ml/kg i.p., emetic control): decreased saccharin intake
salt intake (sodium appetite) ([2]; 0.15 M, 2 ml/kg i.p.): significantly decreased salt intake

Molecule: MT-II
overnight food intake ([3]; 0.3 μg ICV, positive control): significantly decreased
cumulative feeding duration, change ([3]; ICV, positive control): −71%

saccharin intake relative to total intake (taste aversion) ([1]; 3 μg ICV): did not decrease saccharin intake
saccharin intake relative to total intake (taste aversion) ([1]; 10 μg ICV): did not decrease saccharin intake
total amount of salt intake (sodium appetite) ([2]; 3 μg ICV): did not significantly change
total amount of salt intake (sodium appetite) ([2]; 10 μg ICV): did not significantly change
Molecule: YKVNEYQGPVAPSGGFFLFRPRN-NH2 [NMU]
cumulative feeding duration, change ([3]; 3 μg ICV): −33%
overnight food intake, change expressed as percentage of control group ([3]; 3 μg ICV): −38±6%
cumulative feeding duration, change ([3]; 10 μg ICV): −39%
overnight food intake, change expressed as percentage of control group ([3]; 10 μg ICV): −32±3%
